The results in this text go back to ChEMBL document CHEMBL4304788, “Treatment of Cancer and Alzheimer's Disease by PROTAC Degradation of EGFR” (ACS Med Chem Lett, 2019).

Molecules are shown by their SMILES. Bounds are passed on as bounds.

One may read the EC50 as the concentration at which the effect is half-maximal.

This assay has as its target Protein cereblon/Epidermal growth factor receptor (Homo sapiens, UniProt P00533+Q96SW2, L858R/T790M). Briefly: Protac activity at native cereblon/EGFR T790M/L858R mutant (unknown origin) transfected in mouse Baf3 cells assessed as reduction in cell proliferation by MTS assay. The class given is cell-based. In general terms: Formazan colour is commonly taken as a measure of viable cells.

Sequence of Protein cereblon/Epidermal growth factor receptor (P00533 25-1210 T790M/L858R limits assumed, stated change not applied): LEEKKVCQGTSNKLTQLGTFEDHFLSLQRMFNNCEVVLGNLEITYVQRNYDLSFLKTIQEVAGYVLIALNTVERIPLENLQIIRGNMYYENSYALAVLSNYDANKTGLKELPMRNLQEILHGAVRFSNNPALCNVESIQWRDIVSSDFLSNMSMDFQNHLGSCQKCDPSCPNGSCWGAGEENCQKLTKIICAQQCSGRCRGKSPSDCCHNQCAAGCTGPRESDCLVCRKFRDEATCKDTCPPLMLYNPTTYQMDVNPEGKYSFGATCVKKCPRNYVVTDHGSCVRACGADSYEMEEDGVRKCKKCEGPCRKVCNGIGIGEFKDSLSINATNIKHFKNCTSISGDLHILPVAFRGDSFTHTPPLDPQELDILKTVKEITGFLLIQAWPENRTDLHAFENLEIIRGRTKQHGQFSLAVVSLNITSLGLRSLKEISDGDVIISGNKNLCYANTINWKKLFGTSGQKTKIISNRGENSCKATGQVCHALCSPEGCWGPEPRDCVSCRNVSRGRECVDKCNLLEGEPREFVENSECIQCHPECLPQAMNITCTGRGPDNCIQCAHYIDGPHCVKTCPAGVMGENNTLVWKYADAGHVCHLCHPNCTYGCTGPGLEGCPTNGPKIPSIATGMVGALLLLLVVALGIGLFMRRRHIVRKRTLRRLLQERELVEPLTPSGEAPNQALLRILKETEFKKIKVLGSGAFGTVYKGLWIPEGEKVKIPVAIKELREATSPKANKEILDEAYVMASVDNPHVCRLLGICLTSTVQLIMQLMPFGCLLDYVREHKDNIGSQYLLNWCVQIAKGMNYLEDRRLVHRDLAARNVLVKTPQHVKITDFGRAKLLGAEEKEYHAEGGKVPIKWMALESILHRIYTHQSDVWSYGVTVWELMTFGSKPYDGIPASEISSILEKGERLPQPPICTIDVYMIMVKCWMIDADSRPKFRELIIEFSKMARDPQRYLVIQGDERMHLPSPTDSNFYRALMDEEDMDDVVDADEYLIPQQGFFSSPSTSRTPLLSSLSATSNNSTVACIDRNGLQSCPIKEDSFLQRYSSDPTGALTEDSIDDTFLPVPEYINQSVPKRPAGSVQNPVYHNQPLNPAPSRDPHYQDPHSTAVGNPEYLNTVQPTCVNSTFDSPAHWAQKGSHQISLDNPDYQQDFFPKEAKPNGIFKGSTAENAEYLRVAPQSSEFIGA
Sequence of Protein cereblon/Epidermal growth factor receptor (Q96SW2 whole entry, stated change not applied): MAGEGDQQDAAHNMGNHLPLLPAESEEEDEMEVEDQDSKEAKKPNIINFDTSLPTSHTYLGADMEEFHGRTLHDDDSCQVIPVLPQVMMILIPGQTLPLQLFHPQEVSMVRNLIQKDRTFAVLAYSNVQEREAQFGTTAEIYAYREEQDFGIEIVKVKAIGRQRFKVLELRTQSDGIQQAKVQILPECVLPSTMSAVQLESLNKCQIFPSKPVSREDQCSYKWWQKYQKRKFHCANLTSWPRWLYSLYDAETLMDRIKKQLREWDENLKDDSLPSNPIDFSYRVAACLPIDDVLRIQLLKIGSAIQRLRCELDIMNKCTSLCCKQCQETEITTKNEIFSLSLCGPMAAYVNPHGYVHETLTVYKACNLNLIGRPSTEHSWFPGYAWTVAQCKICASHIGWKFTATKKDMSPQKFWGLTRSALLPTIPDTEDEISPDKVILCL

For the compound `O=C1CCC(N2C(=O)c3cccc(NCCOCCOCCOCCOCCN4CCN(c5ccc(-c6ccc7c(c6)C(=O)N(C(C(=O)Nc6nccs6)c6ccccc6)C7)cc5)CC4)c3C2=O)C(=O)N1` (centres undefined), the EC50 was less than 0.5 µM.
The result for `O=C1CCC(N2C(=O)c3cccc(NCCOCCOCCOCCN4CCN(c5ccc(-c6ccc7c(c6)C(=O)N(C(C(=O)Nc6nccs6)c6ccccc6)C7)cn5)CC4)c3C2=O)C(=O)N1` (centres undefined) reads less than 0.5 µM; that for `O=C1CCC(N2C(=O)c3cccc(NCCOCCOCCOCCN4CCN(c5ccc(-c6ccc7c(c6)C(=O)N(C(C(=O)Nc6nccs6)c6ccccc6)C7)cc5)CC4)c3C2=O)C(=O)N1` (centres undefined), less than 0.5 µM; that for `O=C1CCC(N2C(=O)c3cccc(NCCOCCOCCOCCC(=O)N4CCN(c5ccc(-c6ccc7c(c6)C(=O)N(C(C(=O)Nc6nccs6)c6ccccc6)C7)cc5)CC4)c3C2=O)C(=O)N1` (centres undefined), less than 0.5 µM.
